Our source for the bioavailability values is US7981911B2, “Pharmaceutical formulations” (Abbott Laboratories, priority 1999, dated 2011).

This data set in a line: oral bioavailability in dogs. In kind it is in vivo. The settings on record: both sexes, beagle, dog, plasma; unformulated solid in a capsule dosage form; 5 mg/kg oral dose in dogs. The procedure: Dogs (beagle dogs, mixed sexes, weighing 7-14 kg) were fasted overnight prior to dosing, but were permitted water ad libitum. Each dog received a 100 μg/kg subcutaneous dose of histamine approximately 30 minutes prior to dosing. Each dog received a single dosage form corresponding to a 5 mg/kg dose of the drug. The dose was followed by approximately 10 milliliters of water. Blood samples were obtained from each animal prior to dosing and 0.25, 0.5, 1.0, 1.5, 2, 3, 4, 6, 8, 10, and 12 hours after drug administration. The plasma was separated from the red cells by centrifugation and frozen (−30° C.) until analysis. Concentrations of parent drug were determined by reverse phase HPLC with low wavelength UV detection following liquid-liquid extraction of the plasma samples. The parent drug area under the curve was calculated by the trapezoidal method over the time course of the study. The absolute bioavailability of each test composition was calculated by comparing the area under the curve after oral dosing to that obtained from a single intravenous dose. Each capsule or capsule composition was evaluated in a group containing at least six dogs; the values reported are averages for each group of dogs.

The structures appear in SMILES notation.

One may read the bioavailability as the share of a dose that reaches the circulation, judged against a reference dose that is usually intravenous. The low end stands for little systemic uptake, the high end for much systemic uptake. Take `CC(C)c1nc(CN(C)C(=O)NC(C(=O)NC(Cc2ccccc2)CC(O)C(Cc2ccccc2)NC(=O)OCc2cncs2)C(C)C)cs1` (stereo not shown) [compound of formula I]: the bioavailability is less than 2%.
